These molecules were tested against wild type RET (Homo sapiens (Human), UniProt P07949) (assay: RET Wild Type Assay at KM (Caliper electrophoretic mobility shift)). Conditions: 25 μM ATP, 25° C., 120 minutes; read-out: Wild-type RET (RET Inhibitory Activity).
Type: biochemical

Chain of wild type RET (P07949 29-1114): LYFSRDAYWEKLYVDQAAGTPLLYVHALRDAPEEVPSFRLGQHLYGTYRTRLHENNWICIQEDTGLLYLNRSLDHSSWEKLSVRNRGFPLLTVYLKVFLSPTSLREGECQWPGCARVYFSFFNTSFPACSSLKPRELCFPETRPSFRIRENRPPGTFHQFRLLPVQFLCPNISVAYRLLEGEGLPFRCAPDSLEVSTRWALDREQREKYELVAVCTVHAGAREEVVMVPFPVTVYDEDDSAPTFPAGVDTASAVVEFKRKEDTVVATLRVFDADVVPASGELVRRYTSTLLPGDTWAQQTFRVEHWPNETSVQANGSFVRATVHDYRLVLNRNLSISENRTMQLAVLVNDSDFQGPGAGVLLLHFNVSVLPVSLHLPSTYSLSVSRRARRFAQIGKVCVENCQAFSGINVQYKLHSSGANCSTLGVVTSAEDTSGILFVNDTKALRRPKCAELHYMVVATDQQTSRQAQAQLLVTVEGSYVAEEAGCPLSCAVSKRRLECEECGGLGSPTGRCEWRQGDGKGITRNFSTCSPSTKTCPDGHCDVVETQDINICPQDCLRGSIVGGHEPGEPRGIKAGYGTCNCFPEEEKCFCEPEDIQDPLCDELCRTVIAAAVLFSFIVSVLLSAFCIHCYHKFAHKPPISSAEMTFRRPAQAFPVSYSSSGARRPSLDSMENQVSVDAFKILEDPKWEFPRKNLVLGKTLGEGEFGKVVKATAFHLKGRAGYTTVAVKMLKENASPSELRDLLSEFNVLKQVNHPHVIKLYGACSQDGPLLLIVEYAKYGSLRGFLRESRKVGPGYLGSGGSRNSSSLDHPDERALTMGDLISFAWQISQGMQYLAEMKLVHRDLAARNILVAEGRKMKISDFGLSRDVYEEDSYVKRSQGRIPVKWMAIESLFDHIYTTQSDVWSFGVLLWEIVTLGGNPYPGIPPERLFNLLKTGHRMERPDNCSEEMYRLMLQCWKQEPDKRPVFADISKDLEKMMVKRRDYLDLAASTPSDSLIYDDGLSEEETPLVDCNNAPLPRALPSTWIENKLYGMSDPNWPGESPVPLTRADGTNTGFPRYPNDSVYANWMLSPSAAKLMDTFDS

`Cc1cc(Nc2cc(C)[nH]n2)nc([C@H]2C[C@H](C(=O)NCc3ccc(-n4cccn4)nc3)C2)c1` [Compound 100] and `Cc1cc(Nc2cc(C)[nH]n2)nc([C@H]2C[C@H](C(=O)N[C@H](C)c3ccc(-n4cccn4)nc3)C2)c1` [Compound 101] cannot be ordered by IC50: < 1 nM for the first, < 1 nM for the second.

Compared with `Cc1cc(Nc2cc(C)[nH]n2)nc([C@H]2C[C@H](C(=O)N[C@@H](C)c3ccc(-n4cc(F)cn4)nc3)C2)c1` [Compound 102], `Cc1cc(Nc2cc(C)[nH]n2)nc([C@H]2C[C@@H](C(=O)N[C@@H](C)c3ccc(-n4cc(F)cn4)nc3)C2)c1` [Compound 103] is higher in IC50: < 1 nM for the first, 10 to 100 nM for the second. The first is the more potent here.

`Cc1cc(Nc2cc(C)[nH]n2)nc([C@H]2C[C@H](C(=O)N[C@H](C)c3cnc(-n4cc(F)cn4)cn3)C2)c1` [Compound 104] and `Cc1cc(Nc2cc(C)[nH]n2)nc([C@H]2C[C@H](C(=O)N[C@@H](C)c3ccc(-n4cc(F)cn4)nc3)C2)n1` [Compound 105] cannot be ordered by IC50: < 1 nM for the first, < 1 nM for the second.

First: Cc1cc(Nc2cc(C)[nH]n2)nc([C@H]2C[C@@](C)(C(=O)N[C@@H](C)c3ccc(-n4cc(F)cn4)nc3)C2)n1 [Compound 107, (1S,3R)—N—((S)-1-(6-(4-fluoro-1H-pyrazol-1-yl)pyridin-3-yl)ethyl)-1-methyl-3-(4-methyl-6-((5-methyl-1H-pyrazol-3-yl)amino)pyrimidin-2-yl)cyclobutane-1-carboxamide]
Second: Cc1cc(Nc2cc(C)[nH]n2)nc([C@H]2C[C@](C)(C(=O)N[C@@H](C)c3ccc(-n4cc(F)cn4)nc3)C2)n1 [Compound 108, (1R,3S)—N—((S)-1-(6-(4-fluoro-1H-pyrazol-1-yl)pyridin-3-yl)ethyl)-1-methyl-3-(4-methyl-6-((5-methyl-1H-pyrazol-3-yl)amino)pyrimidin-2-yl)cyclobutane-1-carboxamide]
The IC50 of the first is higher: 1.01 to 10 nM for the first, < 1 nM for the second. The second is the more potent here.

Compared with `Cc1cc(Nc2cc(C)[nH]n2)nc([C@]2(O)C[C@@H](C(=O)N[C@@H](C)c3ccc(-n4cc(F)cn4)nc3)C2)c1` [Compound 109], `Cc1cc(Nc2cc(C)[nH]n2)nc([C@]2(F)C[C@H](C(=O)N[C@@H](C)c3ccc(-n4cc(F)cn4)nc3)C2)c1` [Compound 113, (1S,3R)-3-fluoro-N—((S)-1-(6-(4-fluoro-1H-pyrazol-1-yl)pyridin-3-yl)ethyl)-3-(4-methyl-6-(5-methyl-1H-pyrazol-3-ylamino)pyridin-2-yl)cyclobutanecarboxamide] is higher in IC50: < 1 nM for the first, 10 to 100 nM for the second. The first is the more potent here.

`Cc1cc(Nc2cc(C)[nH]n2)nc([C@H]2C[C@](C)(C(=O)N[C@@H](C)c3cnc(-n4cc(F)cn4)cn3)C2)n1` [Compound 110] and `CO[C@]1(C(=O)N[C@@H](C)c2cnc(-n3cc(F)cn3)cn2)C[C@H](c2nc(C)cc(Nc3cc(C)[nH]n3)n2)C1` [Compound 123] cannot be ordered by IC50: < 1 nM for the first, < 1 nM for the second.

`Cc1cc(Nc2cc(C)[nH]n2)nc([C@]2(F)C[C@@H](C(=O)N[C@@H](C)c3ccc(-n4cc(F)cn4)nc3)C2)c1` [Compound 114] and `CO[C@]1(c2cc(C)cc(Nc3cc(C)[nH]n3)n2)C[C@H](C(=O)N[C@@H](C)c2ccc(-n3cc(F)cn3)nc2)C1` [Compound 117, (1S,3R)—N—((S)-1-(6-(4-fluoro-1H-pyrazol-1-yl)pyridin-3-yl)ethyl)-3-methoxy-3-(4-methyl-6-((5-methyl-1H-pyrazol-3-yl)amino)pyridin-2-yl)cyclobutane-1-carboxamide] cannot be ordered by IC50: 1.01 to 10 nM for the first, < 100 nM for the second.

`Cc1cc(Nc2cc(C)[nH]n2)nc([C@]2(O)C[C@@H](C(=O)N(C)[C@@H](C)c3ccc(-n4cc(F)cn4)nc3)C2)c1` [Compound 116] and `Cc1cc(Nc2cc(C)[nH]n2)nc([C@]2(O)C[C@](C)(C(=O)N[C@@H](C)c3ccc(-n4cc(F)cn4)nc3)C2)c1` [Compound 118] cannot be ordered by IC50: 1.01 to 10 nM for the first, < 100 nM for the second.

`Cc1cc(Nc2cc(C)[nH]n2)nc([C@]2(O)C[C@@](C)(C(=O)N[C@@H](C)c3ccc(-n4cc(F)cn4)nc3)C2)c1` [Compound 119] and `Cc1cc(Nc2cc(C)[nH]n2)nc([C@]2(F)C[C@](C)(C(=O)N[C@@H](C)c3ccc(-n4cc(F)cn4)nc3)C2)c1` [Compound 126] cannot be ordered by IC50: < 1 nM for the first, < 100 nM for the second.

`CO[C@]1(C(=O)N[C@@H](C)c2ccc(-n3cc(F)cn3)nc2)C[C@H](c2cc(C)cc(Nc3cc(C)[nH]n3)n2)C1` [Compound 120] and `CO[C@]1(C(=O)N[C@@H](C)c2ccc(-n3cc(F)cn3)nc2)C[C@H](c2nc(C)cc(Nc3cc(C)[nH]n3)n2)C1` [Compound 121] cannot be ordered by IC50: < 1 nM for the first, < 1 nM for the second.

`CO[C@]1(C(=O)N[C@@H](C)c2ccc(-n3cc(F)cn3)nc2)C[C@H](c2cc(C)nc(Nc3cc(C)[nH]n3)n2)C1` [Compound 122] and `CO[C@]1(C(=O)N[C@@H](C)c2cnc(-n3cc(F)cn3)cn2)C[C@H](c2cc(C)nc(Nc3cc(C)[nH]n3)n2)C1` [Compound 124] cannot be ordered by IC50: < 1 nM for the first, < 1 nM for the second.

`CO[C@]1(C(=O)N[C@@H](C)c2ccc(-n3cc(F)cn3)nc2)C[C@](O)(c2cc(C)cc(Nc3cc(C)[nH]n3)n2)C1` [Compound 127] and `CO[C@]1(C(=O)N[C@@H](C)c2ccc(-n3cc(F)cn3)nc2)C[C@@](O)(c2cc(C)cc(Nc3cc(C)[nH]n3)n2)C1` [Compound 128] cannot be ordered by IC50: < 1 nM for the first, < 100 nM for the second.

Work on `CO[C@]1(C(=O)NCc2cnc(-n3cc(F)cn3)cn2)C[C@H](c2cc(C)nc(Nc3cc(C)[nH]n3)n2)C1` [Compound 131] yielded an IC50 of 1.01 to 10 nM.

Source: US10183928B2, “Inhibitors of RET” (BLUEPRINT MEDICINES CORPORATION, priority 2016, dated 2019)
